Data: the C3SDB collision cross section collection

Conditions: instrument: DT, stepped-field

collision cross section (N2) ([M+Na]+) [Å²]	collision cross section (N2) ([M+H]+) [Å²]	SMILES
203.6	–	CCCCC[C@H](O)/C=C/[C@H]1CC2CC(C2)[C@@H]1C/C=C\CCCC(=O)O [Carbocyclic Thromboxane A2]
138.57	–	CC(=O)NCCCC(=O)O [4-Acetamidobutanoic Acid]
291.89	290.12	CCCCCCCCCCCCC=CC[C@@H](O)[C@H](COP(=O)([O-])OCC[N+](C)(C)C)NC(=O)CCCCCCCCCCCCCCCC [SM(d18:1/17:0)]
195.65	–	COC(=O)C1=CO[C@@H](O[C@@H]2O[C@H](CO)[C@@H](O)[C@H](O)[C@H]2O)[C@@H]2[C@@H](C)[C@@H](O)C[C@H]12 [Loganin]
189.14	–	CCCCC/C=C\C=C\C(O)CCCCCCCC(=O)O (centres undefined) [9-HODE]
132.07	–	OC1OC[C@@H](O)[C@H](O)[C@H]1O (stereo partly drawn) [D-(+)-Xylose]
262.43	–	CCCCCCCCCCCCCCCCCCCCCCCC(=O)OC[C@@H](O)COP(=O)([O-])OCC[N+](C)(C)C [LPC(24:0)]
–	187.2	CCCCC/C=C\C/C=C\CCCCCCCC(=O)OC [Methyl Linoleate]
–	241.93	NC(=O)c1ccc[n+]([C@@H]2O[C@H](COP(=O)(O)OP(=O)(O)OC[C@H]3O[C@@H](n4cnc5c(N)ncnc54)[C@H](O)[C@@H]3O)[C@@H](O)[C@H]2O)c1 [Nicotinamide Adenine Dinucleotide (NAD+)]
146.8	–	CC(=O)Oc1ccccc1C(=O)O [Acetylsalicylic Acid]
195.91	172.96	COc1cc(-c2oc3cc(O)cc(O)c3c(=O)c2O)ccc1O [Isorhamnetin]
153.72	146.35	O=C(O)C1(O)C[C@@H](O)C(O)[C@H](O)C1 (some centres undefined) [Quinic Acid]
151.34	149.57	N[C@@H](CS)C(=O)O [L-Cysteine]
142.23	136.36	N[C@@H](CCCC(=O)O)C(=O)O [L-2-Aminoadipic Acid]
161.8	157.17	C[N+](C)(C)CCOP(=O)([O-])OC[C@H](O)CO [sn-Glycero-3-phosphocholine]
193.37	179.4	CCCCCC(=O)/C=C/C=C/CCCCCCCC(=O)O [13-OxoODE]
200.6	–	CC/C=C\C[C@H](O)[C@H](O)/C=C/C=C/C=C\C=C\[C@@H](O)C/C=C\CCC(=O)O [Resolvin D2]
136.57	130.9	N[C@H](CO)Cc1cnc[nH]1 [L-histidinol]
146.68	–	C/C=C(\C)C(=O)NCC(=O)O [Tiglyl Glycine]
187.07	182.43	CCCCCC1OC1C/C=C\C/C=C\C/C=C\CCCC(=O)O (centres undefined) [14(15)-EET]

collision cross section (N2) ([M+Na]+) [Å²]	collision cross section (N2) ([M+H]+) [Å²]	SMILES
–	143.47	N[C@@H](Cn1ccc(=O)c(O)c1)C(=O)O [L-Mimosine]
227.9	213.2	CCCCC/C=C\C\C=C/C=C/C=C/[C@@H](SC[C@H](N)C(=O)O)[C@@H](O)CCCC(=O)O [Leukotriene E4]
238.7	234.1	CCCCC/C=C\C\C=C/C=C/C=C/[C@@H](SC[C@H](N)C(=O)NCC(=O)O)[C@@H](O)CCCC(=O)O [Leukotriene D4]
146.78	152.21	O=C(O)/C=C(/CC(=O)O)C(=O)O [Cis-Aconitic Acid]
156.6	–	Cc1ccccc1C(=O)NCC(=O)O [2-Methylhippuric Acid]
196.92	188.61	Nc1ncnc2c1ncn2[C@@H]1O[C@H](COP(=O)(O)OP(=O)(O)O)[C@@H](O)[C@H]1O [Adenosine 5' Diphosphate]
199.97	–	CCCCCCCCCCCCCCCCCCCC(=O)O [Arachidic Acid]
132.81	–	O=C(CO)[C@@H](O)[C@@H](O)CO [L-Ribulose]
–	145.31	O=C(O)/C=C/c1ccccc1 [Cinnamic Acid]
–	126.88	NC(N)=NCC(=O)O [Guanidinoacetic Acid]
230.37	216.1	CCCCCCCCCCCCCCCC(=O)OC(CC(=O)[O-])C[N+](C)(C)C (centres undefined) [Palmitoylcarnitine]
–	180.03	CC(C)=CC(=O)SCCNC(=O)CCNC(=O)C(O)C(C)(C)COP(=O)(O)OP(=O)(O)OC[C@H]1O[C@@H](n2cnc3c(N)ncnc32)[C@H](O)[C@@H]1OP(=O)(O)O (some centres undefined) [3-Methylcrotonyl-CoA]
146.78	–	O=C(O)CC(C(=O)O)C(O)C(=O)O (centres undefined) [Isocitric Acid]
165.05	154.76	Cc1ncc(COP(=O)(O)O)c(C=O)c1O [Pyridoxal 5'-Phosphate]
244.1	–	CCCCCCCCCCCCCCCCCCC(=O)OCC(O)COP(=O)([O-])OCC[N+](C)(C)C (centres undefined) [LPC 19:0]
137.7	–	C[C@@](O)(CCO)CC(=O)O [Mevalonic Acid]
247.83	–	CCCCCCCCCCCCCCCC(=O)O[C@H](COC(=O)CCCCCCCCCCC)COP(=O)(O)OC[C@H](N)C(=O)O [PS(14:0/14:0)]
239.18	–	CC(=O)N[C@H]1[C@H](O[C@H]2[C@@H](O)[C@@H](CO)O[C@@H](O[C@H]3[C@H](O)[C@@H](O)C(O)O[C@@H]3CO)[C@@H]2O)O[C@H](CO)[C@@H](O)[C@@H]1O[C@@H]1O[C@H](CO)[C@H](O)[C@H](O)[C@H]1O (some centres undefined) [Lacto-N-Tetraose]
197.33	–	CC/C=C\C[C@H](O)/C=C/[C@H]1OC(O)C[C@H](O)[C@@H]1C/C=C\CCCC(=O)O (some centres undefined) [Thromboxane B3]

Continued, compound first:

SMILES	collision cross section (N2) ([M+Na]+) [Å²]	collision cross section (N2) ([M+H]+) [Å²]
CCC(CC)Nc1c([N+](=O)[O-])cc(C)c(C)c1[N+](=O)[O-] [Pendimethalin]	187.77	162.6
O=C(O)CNCP(=O)(O)O [Glyphosate]	141.17	–
O=C(O)c1ccc(=O)[nH]c1 [6-Hydroxynicotinate]	–	136.43
O=P(O)(O)OP(=O)(O)O [Pyrophosphoric Acid]	145.58	–
c1ccc2ccccc2c1 [Naphthalene]	–	120.28
O=C[C@@H](O)[C@H](O)[C@H](O)CO [D-Arabinose]	143.27	–
CCCCCCCCCCCCCC(=O)OC[C@@H](O)COP(=O)([O-])OCC[N+](C)(C)C [LPC 14:0]	225.77	222
OC[C@@H](O)[C@H](O)[C@H](O)[C@@H](O)CO [Galactitol]	145.91	–
CCNc1nc(NC(C)(C)C)nc(SC)n1 [Terbutryn]	–	161.23
O=c1[nH]c(=O)c2[nH]c(=O)[nH]c2[nH]1 [Uric Acid]	143.5	131
CCOCN(C(=O)CCl)c1c(C)cccc1CC [Acetochlor]	174.6	160.09
O=C/C=C/c1ccccc1 [Cinnamaldehyde]	–	134.25
CCCCCCCCCCCCCCCCCC(=O)OC[C@@H](O)COP(=O)([O-])OCC[N+](C)(C)C [18:0 Lyso PC]	243.07	–
C=CCc1cc(OC)c2c(c1)OCO2 [Myristicin]	–	141.69
OC[C@H]1O[C@@H](O[C@H]2[C@H](O)[C@H](O)[C@H](O[C@H]3[C@H](O)[C@H](O)[C@H](O[C@H]4[C@H](O)[C@H](O)[C@H](O[C@H]5[C@H](O)[C@H](O)[C@H](O[C@H]6[C@H](O)[C@H](O)C(O)O[C@@H]6CO)O[C@@H]5CO)O[C@@H]4CO)O[C@@H]3CO)O[C@@H]2CO)[C@@H](O)[C@@H](O)[C@@H]1O (some centres undefined) [Mannohexaose]	281.7	–
O=C(CO)[C@@H](O)[C@H](O)[C@H](O)[C@H](O)CO [D-Sedoheptulose]	150.73	–
O=C(O)[C@H](O)[C@@H](O)[C@H](O)[C@H](O)COP(=O)(O)O [6-Phosphogluconic Acid]	167.16	–
NC(=O)NC1NC(=O)NC1=O (centres undefined) [Allantoin]	145.61	–
OC[C@H]1O[C@@H](O[C@H]2[C@H](O)[C@@H](O)[C@H](O[C@H]3[C@H](O)[C@@H](O)[C@H](O[C@H]4[C@H](O)[C@@H](O)[C@H](O[C@H]5[C@H](O)[C@@H](O)[C@H](O[C@H]6[C@H](O)[C@@H](O)[C@H](O)O[C@@H]6CO)O[C@@H]5CO)O[C@@H]4CO)O[C@@H]3CO)O[C@@H]2CO)[C@H](O)[C@@H](O)[C@@H]1O [Cellohexaose]	283.13	–
O=C(O)[C@H](O)[C@@H](O)[C@H](O)[C@H](O)CO [Gluconic Acid]	149.77	141.89
O=C(CO)[C@@H](O)[C@H](O)COP(=O)(O)O [D-Xylulose 5-Phosphate]	151.4	–
CN(C)c1nc(=O)n(C2CCCCC2)c(=O)n1C [Hexazinone]	179.49	163.17
CS(=N)(=O)CC[C@H](N)C(=O)O (stereo partly drawn) [L-Methionine sulfoximine]	143.1	139.3
CN(C)C(=O)Nc1ccc(Cl)c(Cl)c1 [Diuron]	162.7	153.32
Nc1ccnc(=O)[nH]1 [Cytosine]	–	121.58
CC(=O)Nc1ccc(S(=O)(=O)Nc2cc(C)on2)cc1 [N-Acetyl Sulfamethoxazole]	178.52	171.45
